The results in this text go back to patent US20240002404A1, “SALT OF PYRROLOPYRIMIDINE COMPOUND, CRYSTALLINE FORM THEREOF, AND APPLICATION THEREOF” (GUANGZHOU JOYO PHARMATECH CO., LTD, priority 2020, published 2024).

Usually IC50 stands for the concentration that gives 50% inhibition. A lower IC50 goes with higher potency. The term pKa denotes the negative logarithm of the acid dissociation constant. By Papp A→B is commonly meant the apparent permeability from the apical to the basolateral side of a cell layer. As a reminder, the Papp B→A is the apparent permeability from the basolateral to the apical side of a cell layer. What is called efflux ratio is a quotient of directional permeabilities that is used to spot active efflux. One may read the AUC(0-inf) as total exposure, with the tail of the curve extrapolated. High values mean more exposure, low ones less exposure. Usually Cmax stands for the highest concentration seen after dosing. As a reminder, the half-life is how long it takes for the measured level to halve. Low values mean rapid decline, high ones slow decline. As a reminder, the bioavailability is the share of a dose that reaches the circulation, judged against a reference dose that is usually intravenous.

One data set has as its target TYK2(h) (Homo sapiens (Human), UniProt P29597). The data set can be described thus: In vitro activity assay of TYK2 kinase (radiometric, Eurofins). Type of data set: biochemical. As to the method: (§1) Recombinant human JAK1, JAK2, JAK3 and TYK2 […], and main instruments and reagents were provided by Eurofins, UK.
(§2) Dilution of JAK2, JAK3 and TYK2: 20 mM 3-(N-morpholino)propanesulfonic acid (MOPS), 1 mM EDTA, 0.01% Brij-35.5% glycerol, 0.1% β-mercaptoethanol, 1 mg/mL BSA; dilution of JAK1: 20 mM TRIS, 0.2 mM EDTA, 0.1% β-mercaptoethanol, 0.01% Brij-35.5% glycerol. All compounds were prepared into a 100% DMSO solution and brought to 50-fold the final assay concentration. The test compounds were diluted in 3-fold concentration gradient with 9 final concentrations from 10 μM to 0.001 μM, wherein DMSO content in the assay reaction was 2%. Working stock solutions of the compounds were added to the assay wells as the first component of the reaction, and then the remaining components were added according to the protocol detailed for the assay below.
TYK2(h) was incubated with 8 mM MOPS pH 7.0, 0.2 mM EDTA, 250 μM GGMEDIYFEFMGGKKK, 10 mM magnesium acetate and [γ-^33P]-ATP (activity and concentration were determined as required). […] 10 μL of the reaction mixture was then added dropwise on a P30 filter pad and washed three times with 0.425% phosphoric acid and once with methanol within 4 minutes, then dried and analyzed using a scintillation counter.

The nature of data set [1]: Basic pKa of the compound. Type of data set: physicochemical. An excerpt:
The present disclosure also performs salt-forming screening on L-aspartic acid, fumaric acid, L-tartaric acid and citric acid. Using the crystal form A of the compound represented by formula (II) as raw material, according to the basic pKa (4.47) of the compound and the rough solubility of the starting material in different solvents at room temperature, L-aspartic acid, fumaric acid, L-tartaric acid and citric acid were selected as acidic ligands (molar ratio of free state to acidic ligand was 1:1), and the specific steps of the screening test of five solvent systems as shown in Table 24 were as follows: about 20 mg of the starting crystal form A of the compound represented by formula (II) and equimolar amounts of the above acid were weighed into an HPLC vial, and 0.5 mL of the following solvent were added thereto and mixed to obtain a suspension. After suspending and stirring at room temperature for 3 days, the solid was separated by centrifugation and dried under vacuum at room temperature for about 4 hours.

A further data set in a line: in vitro. To be noted: human, Caco-2, pH 7.4. How it is done:
(§3) The transport buffer solution was HBSS (Hanks' balanced salt solution) and 10 mM HEPES [N-(2-hydroxyethyl)piperazine-N-(2-ethanesulfonic acid) solution], with a pH value of 7.40±0.05; Caco-2 cells were purchased from ATCC.
(§4) Caco-2 cells were seeded at 1×10^5 cells/cm^2 in 96-well BD insert plates of polyethylene terephthalate (PET), and the medium was refreshed every 4-5 days until day 21-28 to form a confluent monolayer. Test compounds were tested in a two-way format at 2 μM in duplicate. Digoxin was added at 10 μM in the two-way format, and nadolol and metoprolol were added at 2 μM in the two-way format. Final concentration of DMSO was adjusted to less than 1%. The plates were incubated in a CO2 incubator at 37±1° C. for 2 h with 5% CO2 at saturated humidity without shaking. All samples were mixed with acetonitrile containing an internal standard, and centrifuged at 4000 rpm for 10 min. 100 microliters of supernatant was diluted with 100 microliters of distilled water for LC/MS/MS analysis. By LC/MS/MS analysis, the concentrations of the test compounds and the reference compound in the initial test article solution, the test article solution and the test compound solution using the peak area ratio of the analyte to the internal standard. After the transport test, the integrity of the Caco-2 cell monolayer was determined by fluorescein yellow exclusion reaction, and the apparent permeability coefficient and efflux ratio were calculated.

The target in the next data set is JAK3(h) (Homo sapiens (Human), UniProt P52333). The data set can be described thus: In vitro activity assay of JAK3 kinase (radiometric, Eurofins). Type of data set: biochemical. As to the method: as §1, §2
JAK3(h) was incubated with 8 mM MOPS pH 7.0, 0.2 mM EDTA, 500 μM GGEEEEYFELVKKKK, 10 mM magnesium acetate and [γ-^33P]-ATP (activity and concentration were determined as required). […] 10 μL of the reaction mixture was then added dropwise on a P30 filter pad and washed three times with 0.425% phosphoric acid and once with methanol within 4 minutes, then dried and analyzed using a scintillation counter.

Data set [2] in a line: Pharmacokinetic (PK) test in mice. Type of data set: in vivo, mice (C57BL/6). As to conditions: mouse, plasma, male C57BL/6 mice. How it is done: Clear solutions obtained by dissolving the test compounds were administered to male mice (C57BL/6) or rats (SD) by tail vein injection and oral gavage (overnight fasting, 7-8 weeks old). After the administration of the test compounds, blood was collected from the mandibular vein and centrifuged to obtain plasma at 0.117, 0.333, 1, 2, 4, 7 and 24 h for the intravenous injection group (1 mg/kg), and at 0.25, 0.5, 1, 2, 4, 8 and 24 h for the oral gavage group (3 mg/kg). The plasma concentration was measured by LC-MS/MS, and the relevant pharmacokinetic parameters were calculated by WinNonlin™ Version 6.3 pharmacokinetic software using non-compartmental model linear logarithmic trapezoid method.

The target in a further data set is JAK2(h) (Homo sapiens (Human), UniProt O60674). The experiment in a line: In vitro activity assay of JAK2 kinase (radiometric, Eurofins). Type of data set: biochemical. As to the method: as §1, §2
JAK2(h) was incubated with 8 mM MOPS pH 7.0, 0.2 mM EDTA, 100 μM […], 10 mM magnesium acetate and [γ-^33P]-ATP (activity and concentration were determined as required). The reaction was started by adding the Mg/ATP mixture and terminated by adding 0.5% phosphoric acid after 40 min of incubation at room temperature. 10 μL of the reaction mixture was then added dropwise on a P30 filter pad and washed three times with 0.425% phosphoric acid and once with methanol within 4 minutes, then dried and analyzed using a scintillation counter.

A further data set deals with JAK1(h) (Homo sapiens (Human), UniProt P23458). The experiment in a line: In vitro activity assay of JAK1 kinase (radiometric, Eurofins). Type of data set: biochemical. How it is done:
as §1, §2
JAK1(h) was incubated with 20 mM Tris/HCl pH 7.5, 0.2 mM EDTA, 500 μM MGEEPLYWSFPAKKK, 10 mM magnesium acetate and [γ-^33P]-ATP (activity and concentration were determined as required). […] 10 μL of the reaction mixture was then added dropwise on a P30 filter pad and washed three times with 0.425% phosphoric acid and once with methanol within 4 minutes, then dried and analyzed using a scintillation counter.

Data set [3] has as its system adjuvant-induced arthritis (AIA). The data set can be described thus: Adjuvant-induced arthritis (AIA) in rats, in-vivo pharmacodynamic study. Set-up: species or system Lewis rats. As to conditions: rat AIA. As to the method:
The compounds disclosed herein were tested for their efficacy on arthritis using a model of adjuvant-induced arthritis in rat. Female, 160 to 180 gram Lewis rats were anesthetized with isoflurane and injected subcutaneously with 0.1 mL of Mycobacterium tuberculosis suspension in the left hind paw. The animals were grouped and administered with thetest compounds after 13 days of modeling, for example, the rats were given different doses as shown in Table 4-2. The test compound 1-13 was dissolved in a mixed menstruum of [5% DMSO, 95% (12% SBE-β-CD), 0.5% MC]. The female Lewis rats were orally administered 2 times daily (8 animals in each group).

A further data set deals with Caco-2 cells. The data set can be described thus: in vitro. To be noted: Caco-2. As to the method:
as §3, §4

Setting [4] is: iv 1 mg/kg, oral gavage 3 mg/kg.

TYK2(h), sequence (P29597 whole entry): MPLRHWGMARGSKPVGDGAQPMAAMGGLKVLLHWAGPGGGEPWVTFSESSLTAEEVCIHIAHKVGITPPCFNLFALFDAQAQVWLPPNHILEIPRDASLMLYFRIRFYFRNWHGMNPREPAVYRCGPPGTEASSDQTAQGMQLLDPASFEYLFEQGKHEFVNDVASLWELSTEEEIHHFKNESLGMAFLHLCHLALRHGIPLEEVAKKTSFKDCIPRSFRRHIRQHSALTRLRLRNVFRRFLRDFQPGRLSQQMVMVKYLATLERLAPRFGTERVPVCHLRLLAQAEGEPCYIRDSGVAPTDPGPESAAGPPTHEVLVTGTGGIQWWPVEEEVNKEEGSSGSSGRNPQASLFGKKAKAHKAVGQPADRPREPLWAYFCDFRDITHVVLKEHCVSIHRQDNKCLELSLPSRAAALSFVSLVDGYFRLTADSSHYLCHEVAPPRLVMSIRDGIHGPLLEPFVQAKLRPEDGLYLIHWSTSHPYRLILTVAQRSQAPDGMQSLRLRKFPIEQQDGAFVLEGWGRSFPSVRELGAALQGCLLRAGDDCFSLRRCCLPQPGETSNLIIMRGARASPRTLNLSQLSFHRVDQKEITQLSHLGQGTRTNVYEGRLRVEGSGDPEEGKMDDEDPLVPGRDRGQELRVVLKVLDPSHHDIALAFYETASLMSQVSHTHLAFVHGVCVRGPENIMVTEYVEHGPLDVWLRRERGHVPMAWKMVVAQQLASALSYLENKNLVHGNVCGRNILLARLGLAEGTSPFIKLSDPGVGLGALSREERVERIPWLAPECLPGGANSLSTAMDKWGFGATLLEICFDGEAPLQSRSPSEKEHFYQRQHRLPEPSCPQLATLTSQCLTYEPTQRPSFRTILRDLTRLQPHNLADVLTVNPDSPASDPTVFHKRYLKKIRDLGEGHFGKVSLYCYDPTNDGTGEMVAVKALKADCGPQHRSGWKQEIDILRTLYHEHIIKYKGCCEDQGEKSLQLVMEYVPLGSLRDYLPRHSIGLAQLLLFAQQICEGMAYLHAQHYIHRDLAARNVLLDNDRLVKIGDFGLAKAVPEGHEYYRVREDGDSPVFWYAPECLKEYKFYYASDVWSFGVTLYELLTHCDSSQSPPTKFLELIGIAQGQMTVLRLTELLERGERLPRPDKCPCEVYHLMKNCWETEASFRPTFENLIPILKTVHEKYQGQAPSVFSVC
JAK2(h), sequence (O60674 whole entry): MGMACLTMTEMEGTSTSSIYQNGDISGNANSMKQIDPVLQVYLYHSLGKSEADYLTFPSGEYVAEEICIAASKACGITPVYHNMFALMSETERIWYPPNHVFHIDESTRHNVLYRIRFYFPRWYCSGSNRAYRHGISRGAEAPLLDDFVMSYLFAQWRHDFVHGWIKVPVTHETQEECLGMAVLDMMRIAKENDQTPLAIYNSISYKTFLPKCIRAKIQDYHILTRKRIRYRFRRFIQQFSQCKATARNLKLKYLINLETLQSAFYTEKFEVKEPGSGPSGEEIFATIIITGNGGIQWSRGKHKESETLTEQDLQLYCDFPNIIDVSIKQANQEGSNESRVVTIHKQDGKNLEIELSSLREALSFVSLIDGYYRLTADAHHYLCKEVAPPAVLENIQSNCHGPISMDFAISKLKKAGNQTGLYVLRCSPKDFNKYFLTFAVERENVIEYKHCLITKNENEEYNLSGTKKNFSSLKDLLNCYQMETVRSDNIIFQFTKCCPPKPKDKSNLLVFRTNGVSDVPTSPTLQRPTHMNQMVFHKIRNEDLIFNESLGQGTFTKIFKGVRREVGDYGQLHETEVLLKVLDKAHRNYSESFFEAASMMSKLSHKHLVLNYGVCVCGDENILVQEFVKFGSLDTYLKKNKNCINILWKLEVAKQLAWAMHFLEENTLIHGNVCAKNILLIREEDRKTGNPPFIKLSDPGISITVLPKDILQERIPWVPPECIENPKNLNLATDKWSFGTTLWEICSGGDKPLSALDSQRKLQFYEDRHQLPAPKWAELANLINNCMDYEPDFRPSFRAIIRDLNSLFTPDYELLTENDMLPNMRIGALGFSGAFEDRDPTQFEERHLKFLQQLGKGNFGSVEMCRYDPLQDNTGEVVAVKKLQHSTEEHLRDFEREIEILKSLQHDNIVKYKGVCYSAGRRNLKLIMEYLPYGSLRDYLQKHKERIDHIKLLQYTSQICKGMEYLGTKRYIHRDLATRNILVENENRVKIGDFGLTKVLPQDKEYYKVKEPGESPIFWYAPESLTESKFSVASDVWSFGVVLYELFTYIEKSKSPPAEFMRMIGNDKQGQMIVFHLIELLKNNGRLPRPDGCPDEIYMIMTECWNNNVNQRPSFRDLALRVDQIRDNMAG
JAK1(h), sequence (P23458 whole entry): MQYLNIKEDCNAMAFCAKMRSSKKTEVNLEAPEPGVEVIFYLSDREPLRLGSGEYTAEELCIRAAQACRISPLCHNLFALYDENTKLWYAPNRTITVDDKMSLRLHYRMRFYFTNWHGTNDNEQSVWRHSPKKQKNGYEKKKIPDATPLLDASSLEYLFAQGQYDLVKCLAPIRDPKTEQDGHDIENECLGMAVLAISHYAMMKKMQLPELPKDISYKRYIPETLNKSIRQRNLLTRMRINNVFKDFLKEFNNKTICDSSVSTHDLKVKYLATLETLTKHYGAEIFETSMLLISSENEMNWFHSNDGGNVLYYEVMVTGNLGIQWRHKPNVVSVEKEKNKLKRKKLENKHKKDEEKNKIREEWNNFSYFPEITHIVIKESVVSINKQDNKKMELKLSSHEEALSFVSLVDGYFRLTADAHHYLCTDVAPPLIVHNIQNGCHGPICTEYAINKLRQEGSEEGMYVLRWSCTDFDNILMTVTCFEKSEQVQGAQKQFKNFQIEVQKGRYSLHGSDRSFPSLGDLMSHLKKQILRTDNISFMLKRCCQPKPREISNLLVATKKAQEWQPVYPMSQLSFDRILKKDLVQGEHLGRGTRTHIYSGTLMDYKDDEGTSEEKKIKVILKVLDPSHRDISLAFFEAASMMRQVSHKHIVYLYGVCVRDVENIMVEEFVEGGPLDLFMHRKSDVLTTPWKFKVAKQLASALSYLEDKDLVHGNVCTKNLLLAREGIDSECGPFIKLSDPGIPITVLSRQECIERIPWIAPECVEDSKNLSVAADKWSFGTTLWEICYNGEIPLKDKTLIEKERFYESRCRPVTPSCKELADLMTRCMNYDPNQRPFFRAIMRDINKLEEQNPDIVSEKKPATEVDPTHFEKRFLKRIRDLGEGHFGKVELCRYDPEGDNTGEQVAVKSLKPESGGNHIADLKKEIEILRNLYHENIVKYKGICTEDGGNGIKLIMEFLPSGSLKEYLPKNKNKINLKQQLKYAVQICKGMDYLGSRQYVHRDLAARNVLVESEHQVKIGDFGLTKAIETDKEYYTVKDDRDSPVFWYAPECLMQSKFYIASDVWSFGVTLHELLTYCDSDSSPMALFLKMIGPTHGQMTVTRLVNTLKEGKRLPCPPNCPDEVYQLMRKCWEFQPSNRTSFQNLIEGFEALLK
JAK3(h), sequence (P52333 whole entry): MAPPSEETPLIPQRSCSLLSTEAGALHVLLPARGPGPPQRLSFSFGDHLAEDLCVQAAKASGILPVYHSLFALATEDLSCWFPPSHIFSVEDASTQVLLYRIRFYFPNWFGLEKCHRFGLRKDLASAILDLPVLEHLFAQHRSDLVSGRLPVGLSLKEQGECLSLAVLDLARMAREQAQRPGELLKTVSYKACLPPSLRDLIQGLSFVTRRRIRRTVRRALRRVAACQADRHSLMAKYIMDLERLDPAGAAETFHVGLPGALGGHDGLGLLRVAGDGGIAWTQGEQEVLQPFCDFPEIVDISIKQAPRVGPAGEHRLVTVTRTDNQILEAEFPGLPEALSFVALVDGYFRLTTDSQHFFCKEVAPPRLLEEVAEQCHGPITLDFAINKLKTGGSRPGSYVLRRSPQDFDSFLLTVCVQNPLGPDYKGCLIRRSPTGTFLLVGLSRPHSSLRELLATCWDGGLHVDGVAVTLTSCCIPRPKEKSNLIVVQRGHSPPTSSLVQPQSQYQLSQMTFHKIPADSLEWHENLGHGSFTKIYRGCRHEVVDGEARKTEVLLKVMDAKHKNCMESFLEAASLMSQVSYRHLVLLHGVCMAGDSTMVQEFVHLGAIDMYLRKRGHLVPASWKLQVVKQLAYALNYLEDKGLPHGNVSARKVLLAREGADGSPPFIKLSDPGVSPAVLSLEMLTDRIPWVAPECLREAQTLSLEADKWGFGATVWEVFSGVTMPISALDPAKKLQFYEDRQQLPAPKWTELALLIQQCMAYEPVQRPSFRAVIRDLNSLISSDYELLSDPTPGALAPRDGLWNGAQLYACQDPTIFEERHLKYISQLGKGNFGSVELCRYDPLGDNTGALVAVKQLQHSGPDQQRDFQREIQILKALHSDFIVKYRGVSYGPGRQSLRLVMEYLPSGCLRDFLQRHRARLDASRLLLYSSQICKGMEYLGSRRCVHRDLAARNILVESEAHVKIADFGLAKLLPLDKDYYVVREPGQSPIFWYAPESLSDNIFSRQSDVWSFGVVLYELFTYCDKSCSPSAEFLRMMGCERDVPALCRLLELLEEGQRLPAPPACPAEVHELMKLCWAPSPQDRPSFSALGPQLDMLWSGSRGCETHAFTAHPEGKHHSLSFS

In the case of `CN(c1ncnc2[nH]ccc12)[C@@H]1CCc2cc(C#N)nn2C1`, the IC50 against TYK2(h) stood at 15 nM; on JAK3(h), 118 nM; at JAK2(h), 8 nM; against JAK1(h) it was 1 nM. This compound came in with a pKa in data set [1] of 4.47. The apical-to-basolateral permeability (Papp A→B) at 2 h, 2 μM in the data set “in vitro” was determined as 28.6 ×10⁻⁶ cm/s. In addition, the Papp B→A at 2 h, 2 μM in the data set “in vitro” was determined as 31.2 ×10⁻⁶ cm/s. Also, the efflux ratio at 2 h, 2 μM in “in vitro” worked out at 1.09. In [2] (setting [4]), the AUC(0-inf) turned out to be 12.8 µM·h. Also, the Cmax in data set [2] (setting [4]) stood at 6 µM. In addition, the half-life in data set [2] (setting [4]) was 1.89 h. Moreover, in data set [2] (oral gavage 3 mg/kg vs iv 1 mg/kg), the bioavailability was determined as 88.4%. The “therapeutic effect (inhibition rate versus menstruum control group)” value in data set [3] (3 mg/kg and 10 mg/kg, P<0.0001) was “significant therapeutic effect”. For the same compound, the “Inhibition on area under the clinical score curve (AUC)” value in [3] (3 mg/kg oral 2 times daily) worked out at 49.6%; in data set [3] (10 mg/kg oral 2 times daily), 60.5%.
`CC(C)(C)NCC(O)COc1cccc2c1CC(O)C(O)C2` (stereo not shown) [Nadolol]: in the data set with Caco-2 cells, the “Mean apparent permeability coefficient Mean Papp A to B” value is on record as 0.16 10^−6 cm/s.
